Structures are written as SMILES.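 Grown in 96-well plates, cells were treated for 48 hours with each compound at five concentrations. Insufficient inhibition: endpoint recorded as highest concentration tested. GI50 is the concentration that inhibits growth by half. TGI: concentration producing complete growth inhibition.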

In PubChem BioAssay (NCI) one finds TGI and GI50 data, which are given here for five molecules.

Among the test systems are KM12 colon; RXF 393 renal; UACC-62 melanoma; UO-31 renal; MDA-MB-231 breast; OVCAR-4 ovarian; MCF7 breast; T-47D breast; PC-3 prostate; DU-145 prostate.
Experiment in all cases: growth of human tumour cells (NCI), 48 h

Consider `O=C(N/N=C/C=C/c1ccccc1)[C@H](O)[C@@H](O)C(=O)N/N=C/C=C/c1ccccc1`, for which the TGI in the test on KM12 colon, with RXF 393 renal, with UACC-62 melanoma and in the test on UO-31 renal was above 100 µM in each case.

As to `COc1ccc(CC2CCc3nc(N)nc(N)c3C2)cc1OC` (centres undefined), the TGI was above 75.2 µM in the test on MDA-MB-231 breast; above 100 µM in the test with KM12 colon; 0.81 µM in the test with RXF 393 renal; above 100 µM in the test with OVCAR-4 ovarian; above 36.9 µM in the test on UACC-62 melanoma; above 44.4 µM in the test on MCF7 breast. Besides, the values for the TGI in the test on T-47D breast, in the test on UO-31 renal and in the test with PC-3 prostate were above 82.6 µM, above 100 µM and above 100 µM, respectively.

For `CCN(CCO)C(=O)C1(c2ccccc2)CCCCC1`, the TGI in the test on MDA-MB-231 breast, with KM12 colon, in the test with RXF 393 renal, with OVCAR-4 ovarian, with UACC-62 melanoma and in the test on MCF7 breast was above 10 µM throughout. In addition, the TGI in the test on T-47D breast, in the test with UO-31 renal, in the test with PC-3 prostate and in the test with DU-145 prostate was above 10 µM in each case.

`C[C@]12CC[C@H](OC(=O)Cc3ccc(N(CCCl)CCCl)cc3)CC1=CC[C@@H]1[C@@H]2CC[C@]2(C)C(=O)CC[C@@H]12`: the TGI with MDA-MB-231 breast, in the test with KM12 colon, with RXF 393 renal, with MCF7 breast, with T-47D breast and in the test with UO-31 renal was above 100 µM throughout. Further, the TGI in the test with PC-3 prostate and in the test on DU-145 prostate was above 100 µM throughout.

`OCCCNc1nc(=S)[nH]c2[nH]ncc12`: the GI50 with KM12 colon is 38.1 µM; in the test with RXF 393 renal, 44.3 µM; in the test with OVCAR-4 ovarian, 53.7 µM; in the test with UACC-62 melanoma it was 30 µM; in the test on MCF7 breast it was 29.8 µM; in the test on T-47D breast, 45 µM. For the same molecule, the GI50 was 44.1 µM with UO-31 renal, 70.2 µM with PC-3 prostate and 41.3 µM with DU-145 prostate. In addition, the TGI with KM12 colon is above 100 µM; in the test on RXF 393 renal, above 100 µM; in the test with OVCAR-4 ovarian it was above 100 µM; in the test on UACC-62 melanoma, above 100 µM; in the test with MCF7 breast, 81.3 µM; in the test on T-47D breast, above 100 µM. Further, the TGI in the test on UO-31 renal, in the test with PC-3 prostate and with DU-145 prostate was above 100 µM in each case.
